The values that follow come from patent US20090281054A1, “COMPOSITIONS AND METHODS COMPRISING CAPURAMYCIN ANALOGUES” (priority 2008, published 2009).

Read-outs that look alike come from different tables or passages of the source.

The subject of this assay is MTB. The assay is classed as cell-based, Mycobacterium tuberculosis.

For `CCCCCCCCCC(=O)O[C@@H]1[C@H](OC)[C@@H]([C@@H](O[C@H]2OC(C(=O)N[C@H]3CCC[C@@H](C)NC3=O)=C[C@H](O)[C@@H]2O)C(N)=O)O[C@H]1n1ccc(=O)[nH]c1=O` [SQ641], the Frequency of mutation result is given as “zero” and the Resistant colonies entry was “no colonies”. Further, the Frequency of mutation result (second experiment, 8 μg/ml SQ641, 1 μg/ml RIF) is given as “zero”.
